Laboratory results reported in patent publication US20240277662A1, “Administration of a Compound to Individuals with Hepatic Impairment” (Arena Pharmaceuticals, Inc., priority 2021, published 2024).
Like-named read-outs stand apart in the source and are kept apart here.

Columns and labels:
[1] = approximately 281 adult subjects treated at various doses; cited from earlier work
[2] = Safety and tolerability of a single oral dose of etrasimod in the hepatic impairment study; type: in vivo, human; settings: single oral dose 2 mg; normal hepatic function or mild, moderate, severe hepatic impairment
Description: (§1) A study evaluated the effect of hepatic impairment on the PK, safety, and tolerability of etrasimod.
An open-label, parallel-group study included 36 patients (aged 18-80 years; body mass index ≥18) with hepatic impairment, based on Child-Pugh score at screening (mild=5-6 [n=8], moderate=7-9 [n=8], severe=10-14 [n=6]), and demographically matched control patients with normal hepatic function (n=14 total). The first patient with severe hepatic impairment was enrolled after ≥2 patients with mild hepatic impairment and ≥2 patients with moderate hepatic impairment had been enrolled and followed for ≥48 hours after dosing to ensure no significant safety signals were observed. […] Safety was assessed by adverse event monitoring, vital signs, physical and neurological examination, 12-lead electrocardiogram (ECG), and clinical laboratory evaluations. Plasma concentrations of etrasimod were determined via liquid chromatography-tandem mass spectrometry (LC-MS/MS) from matrix-matched calibration curves between 0.25 to 100.0 ng/ml and 0.1 to 120.4 ng/mL for total etrasimod (bound and unbound) and unbound etrasimod, respectively. Analyte LC-MS/MS quantitation reagents included an ACE C18 column, a 20-mM ammonium acetate/acetonitrile mobile phase, a Shimadzu LC pump and autosampler, and a Sciex API6500+MS with an electrospray probe in negative multiple reaction monitoring. […]

ulcerative colitis = settings: UC patients, cited from earlier work
[3] = Open-label, parallel-group single-dose PK study of etrasimod in patients with hepatic impairment and matched controls; type: in vivo, human; settings: single oral dose 2 mg; for half-life: po, 2 mg, read-out: t1/2, mean (converted)
Description: as §1
An open-label, parallel-group study included 36 patients (aged 18-80 years; body mass index ≥18) with hepatic impairment, based on Child-Pugh score at screening (mild=5-6 [n=8], moderate=7-9 [n=8], severe=10-14 [n=6]), and demographically matched control patients with normal hepatic function (n=14 total). The first patient with severe hepatic impairment was enrolled after ≥2 patients with mild hepatic impairment and ≥2 patients with moderate hepatic impairment had been enrolled and followed for ≥48 hours after dosing to ensure no significant safety signals were observed. On Day 1, patients received a single oral dose of etrasimod 2 mg after ≥10-hour fast. PK and safety data were collected over 21 days. Safety was assessed by adverse event monitoring, vital signs, physical and neurological examination, 12-lead electrocardiogram (ECG), and clinical laboratory evaluations. Plasma concentrations of etrasimod were determined via liquid chromatography-tandem mass spectrometry (LC-MS/MS) from matrix-matched calibration curves between 0.25 to 100.0 ng/ml and 0.1 to 120.4 ng/mL for total etrasimod (bound and unbound) and unbound etrasimod, respectively. Analyte LC-MS/MS quantitation reagents included an ACE C18 column, a 20-mM ammonium acetate/acetonitrile mobile phase, a Shimadzu LC pump and autosampler, and a Sciex API6500+MS with an electrospray probe in negative multiple reaction monitoring. Plasma protein-free supernatant was collected via ultracentrifugation at 223,000 g for 4 hours. Unbound etrasimod concentrations were only measured four hours post dose and results assumed to apply to other PK collection times. For protein precipitation, acetonitrile was applied to a 1:1 mixed matrix of plasma: supernatant. The positive control was warfarin. Plasma concentrations and PK parameters were summarized by hepatic function using descriptive statistics. Unbound etrasimod PK parameters were based on total etrasimod PK parameters adjusted by percent unbound. Mean plasma concentration-time profiles were presented graphically. Phoenix WinNonlin (CertaraUSA, Inc.) was used for PK analysis.

## O=C(O)C[C@H]1CCc2c1[nH]c1ccc(OCc3ccc(C4CCCC4)c(C(F)(F)F)c3)cc21 [Compound 1, (R)-2-(7-(4-cyclopentyl-3-(trifluoromethyl)benzyloxy)-1,2,3,4-tetrahydrocyclopenta[b]indol-3-yl)acetic acid]
[1]
  safety and tolerability: safe and well-tolerated
[2]
  safety findings: no clinically significant safety findings
  tolerability: well tolerated
Ulcerative colitis; 2 mg QD for 12 weeks
  endoscopic and symptomatic improvements versus placebo: clinically meaningful and statistically significant endoscopic and symptomatic improvements
Ulcerative colitis; up to 46 weeks
  beneficial effects in open-label extension study: Sustained beneficial effects
[3]; human, plasma, demographically matched normal control groups
  half-life: 43.9 to 59.5 h
[3]; human, plasma, mild hepatic impairment group
  half-life: 55.7 h
[3]; human, plasma, moderate hepatic impairment group
  half-life: 69.7 h
[3]; human, plasma, severe hepatic impairment group
  half-life: 76.5 h
[3]; human, fasted, across all groups, plasma, read-out: median tmax
  Tmax: 4 to 8 h
[3]; all hepatic impairment groups
  unbound etrasimod AUC vs demographically matched normal control groups: typically comparable
[3]; moderate and severe hepatic impairment groups
  mean plasma concentration-time profiles: slightly higher
[3]; normal hepatic function vs mild hepatic impairment groups
  mean plasma concentration-time profiles: overlapped
[3]; patients with mild, moderate or severe hepatic impairment
  changes in etrasimod exposure: relatively modest changes
[3]; progressively lower in mild, moderate and severe hepatic impairment groups
  unbound etrasimod Cmax, lower vs demographically matched normal control groups: up to 42.0%
[3]; total etrasimod, all hepatic impairment groups
  peak exposure (Cmax) vs demographically matched normal control groups: comparable
